Brc1cc(Br)cc(Br)c1
solubility (mole fraction)
Settings	288.15 K	293.15 K	298.15 K	303.15 K	308.15 K	313.15 K	318.15 K	323.15 K	328.15 K
in 1,4-dioxane	0.0656	0.0742	0.0851	0.0972	0.111	0.123	0.141	0.157	0.178
in DMAc	0.0159	0.0195	0.024	0.0292	0.0346	0.041	0.0491	0.0582	0.0683
in DMF	0.00998	0.0127	0.0161	0.0202	0.0244	0.0295	0.0355	0.044	0.0521

— BigSolDB 2.1
